According to article PMC3985514 (Biochemistry, 2014):
Where “and” joins values, the source holds several entries; their conditions need not be identical. Identical values can stand only once. Like-named read-outs stand apart in the source and are kept apart here.

Target: Mtb NDH-2 (Mycobacterium tuberculosis, UniProt P95160)
Format: biochemical

Mtb NDH-2, sequence (P95160 whole entry): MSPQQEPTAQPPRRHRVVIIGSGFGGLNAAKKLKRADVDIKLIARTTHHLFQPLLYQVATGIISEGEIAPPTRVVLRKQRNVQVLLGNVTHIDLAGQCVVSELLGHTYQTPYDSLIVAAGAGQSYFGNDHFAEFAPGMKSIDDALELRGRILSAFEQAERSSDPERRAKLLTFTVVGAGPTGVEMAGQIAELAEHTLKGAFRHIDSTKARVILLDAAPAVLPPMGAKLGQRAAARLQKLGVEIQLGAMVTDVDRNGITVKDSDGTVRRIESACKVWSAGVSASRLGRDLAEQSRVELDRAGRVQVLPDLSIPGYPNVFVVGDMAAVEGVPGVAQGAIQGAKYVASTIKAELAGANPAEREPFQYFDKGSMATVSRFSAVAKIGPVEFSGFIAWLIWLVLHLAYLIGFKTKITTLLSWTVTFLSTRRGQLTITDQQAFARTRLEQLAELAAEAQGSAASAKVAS

Question: Which results are given for `NC(=O)C1=CN([C@@H]2O[C@H](COP(=O)(O)OP(=O)(O)OC[C@H]3O[C@@H](n4cnc5c(N)ncnc54)[C@H](O)[C@@H]3O)[C@@H](O)[C@H]2O)C=CC1` [NADH, nicotinamide adenine dinucleotide, reduced form]?
Answer: Km (read-out: KM for NADH (average), membrane-bound NDH-2 with UQ0, average): 280 µM; Km (read-out: KM^NADH): 240 µM and 320 µM

Question: For `COC1=C(OC)C(=O)C(C)=CC1=O` [UQ0], which kcat is on record?
Answer: 570.0 ± 200 s^–1

Question: What about the kcat ([…], NADH oxidation with the quinone as electron acceptor, [NADH] varied) of the same molecule?
Answer: 580.0 ± 170 s^–1

Question: And the kcat ([…], ratio plot, [UQ0] = 6.25[NADH])?
Answer: 330 ± 15 s^–1

Question: What about the Vmax (membrane-bound NDH-2, both with and without UQ1H2) of the same molecule?
Answer: 0.12 ± 0.01 A340 min^–1 nM^–1

Question: What about the Km (read-out: apparent KM value for UQ0, membrane-bound NDH-2, absence of UQ1H2 (Figure 6C)) of the same molecule?
Answer: 350 ± 7 µM

Question: How did the inhibition (1.0 mM UQ1H2, 0.05 mM UQ1 as electron acceptor, membrane-bound NDH-2) turn out when `COc1c(O)c(C)c(CC=C(C)C)c(O)c1OC` [UQ1H2] was run?
Answer: 30 ± 10%

Question: What about the increase in activity (UQ0 as electron acceptor, membrane-bound NDH-2) of the same molecule?
Answer: up to 5 fold
